This passage reports antimicrobial efficacy results from US12063933B1, “Antimicrobial compositions including copper(I) salts and additives” (CORNING INCORPORATED, priority 2023, dated 2024).

This experiment deals with Staphylococcus aureus (ATCC 6538). Put plainly: EPA Test antimicrobial efficacy (log kill) of films/coupons. It is filed as cell-based.

For the compound `CCOP(OCC)OCC.[Cu][I]` [CuI(TEP), iodo(triethyl phosphite)copper(I)], the antimicrobial efficacy result was “essentially full kill”.
